Legend:
[1] = X-Ray diffraction, crystallinity of extrudates; assay type: physicochemical; details: excipient extruded alone
Method: The crystal structure was characterized by X-Ray diffraction (LabX XRD6000, Shimadzu, Columbia, Md., USA). […] The powdered samples were placed in aluminum holders and measured in the reflection mode from 10 to 40° 2θ. The scanning rate was 5°/min using a sampling pitch of 0.02°. Each sample was measured in duplicate.

[2] = Dissolution test, USP paddle apparatus, UV quantification of active pharmaceutical ingredient release; assay type: physicochemical; details: water, 37° C., paddle 50 rpm; pure drug powder
Method: Pre-mixed, dry powder materials (10% griseofulvin in α-mannitiol or 50% griseofulvin in α-mannitiol) were extruded using a production scale extruder (Leistritz Mikro GL 27-28D, Leistritz, Nuermber, Germany). […] The shear rate was varied on two levels during extrusion by varying the barrel length, the number of die holes and screw configuration. The extrudates were characterized by a dissolution test in accordance to the preliminary experiments (see FIG. 10). The dissolution tests were performed in a paddle apparatus (VK7030, Varian, Cary, N.C., USA) in accordance with the USP at 50 rpm. Six samples of each batch were tested in water at 37° C. as dissolution media. For the dissolution test, the extrudates were cut in small pieces of approximately 2 mg. The active pharmaceutical ingredient release was quantified with a UV-photometer (DU 640, Beckman, Fellerton, USA; Cary 300, Varian, Victoria, Australia) using different wavelengths (griseofulvin 296 nm, phenytoin 220 nm and spironolactone 243 nm) for 120 min using a cuvette with a 50 mm path length.

| crystallization after extrusion, in words [1] | Compound | other results |
| --- | --- | --- |
| – | C[C@H](O)C(=O)O [L-(+)-lactic acid, L-(+)-Lactic acid] | time within which crystallization was completed [1]: ≤ 24 h |
| still predominantly amorphous after 24 h | OC[C@@H](O)[C@@H](O)[C@H](O)[C@@H](O)CO [Sorbitol, sorbitol] | – |
| rapid crystallization | OC[C@@H](O)[C@@H](O)[C@@H](O)CO [adonitol] | – |
| – | COC1=CC(=O)C[C@@H](C)[C@]12Oc1c(Cl)c(OC)cc(OC)c1C2=O [griseofulvin] | time to attain 50% release [2]: six |
